The source of these data is patent publication US20240002870A1, “RAPID TRANSFORMATION OF MONOCOT LEAF EXPLANTS” (PIONEER HI-BRED INTERNATIONAL, INC., priority 2020, published 2024).

The test system of test [1] is maize plants with edited or wild-type ALS2 alleles. Description: Chlorsulfuron resistance test of plants with edited and wild-type ALS2 alleles (spray, germination on medium). The format is in vivo. The following applies: for plants fourteen days after germination on media: 100 ppm; for phenotype three weeks after treatment: spray 50, 100 (1x), 200, 400 mg/liter.
In test [2] the test system is Pioneer inbred PHH5E leaf segments. As to the kind of experiment: Auxin (2,4-D) pre-treatment of seedlings prior to Agrobacterium infection (Table 29). The format is cell-based, maize. The following applies: for T-DNA Delivery: PHP71539 plus PHP97334.
Test [3] has as its system inbred PHH5E seedling-derived leaf segments. As to the kind of experiment: Seedling pre-treatment with ancymidol before leaf transformation. The format is cell-based, maize. The settings on record: PHP97334.
Test [4] deals with Japonica rice (Oryza sativa var Kitaake), teff (Eragrostis tef), pearl millet (Pennisetum glaucum) seedlings. Description: Ancymidol pretreatment during seed germination and seedling growth of other cereals. The class given is cell-based. The settings on record: 1 mg/l in 900 medium; all three cereal crops. The method, then: Both […] ancymidol pretreatments during seed germination and seedling growth were tested (using medium 900 plus 1 mg/l or 2 mg/l ancymidol) on three cereals Japonica rice (Oryza sativa var Kitaake), teff (Eragrostis tef), and pearl millet (Pennisetum glaucum). […] When seed from all three species were germinated and grown on 900 medium plus 2 mg/l ancymodiol, the seedlings only grew to a height of 1-2 cm after 14 days and although the leaf-whorl region was thicker (due to wider leaves), processing these small seedlings to produce leaf segments followed by transformation was more difficult.
In contrast, for all three cereal crops, seed germination and seedling growth on 900 plus 1 mg/l ancymidol produced an intermediate growth rate, with thicker stems and wider leaves than the control (with no ancymidol). […] Thus, compared to maize and sorghum in which 2 mg/l ancymidol pretreatment during seedling growth is optimal for leaf transformation, a lower concentration of 1 mg/l ancymidol produced optimal results in rice, tef, and pearl millet.

SMILES strings stand for the structures. Values joined by “and” are separate entries in the source; they are usually repeats but may differ in a detail not shown here. Identical values can stand only once.

`COc1nc(C)nc(NC(=O)NS(=O)(=O)c2ccccc2Cl)n1` [chlorsulfuron]: the “plants fourteen days after germination on media” value in test [1] (plants with edited alleles) is “normal height and a well-developed root system”; in test [1] (plants with wild-type alleles) it was “short and do not develop roots”. Further, the “phenotype three weeks after treatment” value in test [1] (T1 plants with only wild-type alleles) was “strong signs of senescence”; in test [1] (four-week old T1 plants with an edited ALS2 allele) it was “normal phenotype”.

Turning to `O=C(O)COc1ccc(Cl)cc1Cl` [2,4-D, 2,4-dichlorophenoxyacetic acid], the “No. SC Clean (single-copy T-DNA integration with no extraneous Agrobacterium sequences)” value was 18 in test [2] (3 mg/l 2,4-D for 24 hours), 40 in test [2] (10 mg/l 2,4-D for 24 hours) and 19 in test [2] (30 mg/l 2,4-D for 24 hours). Further, the “T-DNA Delivery” value in test [2] (10 mg/l 2,4-D for 24 hours before infection) and in test [2] (30 mg/l 2,4-D for 24 hours before infection) was 4 (90-100%) each time. Besides, the “effect on leaf transformation (Txn %, single-copy T-DNA integrations) compared to the control treatment” value in test [2] (10 mg/l, 24 hours) is reported as “improved leaf transformation”.

Regarding `COc1ccc(C(O)(c2cncnc2)C2CC2)cc1` (centres unmarked) [Ancymidol, ancymidol], the Txn % in test [3] (2 mg/l) is 236% and 358% and 303%; in test [3] (2 mg/l, listed as ancymidol) it was 302%; in test [3] (2 mg/l, total over three experiments), 302%; in test [3] (4 mg/l), 234% and 252% and 253%; in test [3] (4 mg/l, listed as ancymidol) it was 246%; in test [3] (4 mg/l, total over three experiments), 246%. Further, the “transgenic T0 plantlets compared to the other two treatments” value in test [4] is “produced the highest number of transgenic TO plantlets”.
